US12419839B2, “Methods and compositions for targeted delivery of protein fragments” (Signablok, Inc., priority 2009, dated 2025)
Where no end group is shown, it is not given here.

Assays:
[1] = system: A549 xenograft; assay: A549 xenograft mouse model of NSCLC; format: in vivo; settings: compared to the vehicle-treated group
Text: FIG. 16 presents exemplary data showing that in drug-containing synthetic (recombinant) HDL (SLP, LPC), apolipoprotein can be replaced by synthetic apolipoprotein fragments without compromising the drug antitumor activity in an animal model. Bars, SEM. For statistical analysis, each treatment was compared with the vehicle control using Student's t test. **, P 0.001 to 0.01. Abbreviations: apo, apolipoprotein; HDL, high density lipoproteins; HDL (A-Iox), HDL with oxidized human apo A-I; HDL (PE22ox+PA22ox), HDL with a 1:1 mixture of synthetic peptides PE22ox and PA22ox that correspond to apo A-I helixes 4 and 6, respectively (SEE FIG. 12); dHDL and sHDL, discoidal and spherical HDL, respectively; LPC, lipoprotein/lipopeptide complexes; NSCLC, non-small cell lung cancer; PTX, paclitaxel; SLP, synthetic lipoprotein/lipopeptide particles; TREM-1, triggering receptor expressed on myeloid cells-1.
See, FIGS. 15 and 16. Here, A549 cells were injected subcutaneously into nude mice and randomized into treatment groups (n=10) once tumors reached an average of 200 mm^3. The treatment groups were: i) Vehicle (HDL containing no GF9); ii) paclitaxel (PTX) as a positive control; iii) GF9-dHDL (A-Iox); iv) GF9-sHDL (A-Iox); v) GF9-dHDL(PE22ox+PA22ox); and vi) GF9-sHDL(PE22ox+PA22ox) where each group received intraperitoneal injections twice a week. […]

[2] = system: mice with CIA; settings: sHDL-bound MG11 2.5 mg/kg
[3] = system: GM-CSF, IFNγ, IL-1β, IL-2, IL-6, IL-17, M-CSF and TNFα; assay: serum cytokines in mice with CIA; format: in vivo; settings: serum on day 38; MG11 and MG11-2G 25 mg/kg, sHDL-bound MG11 2.5 mg/kg; vs vehicle

`CC(=O)O[C@H]1C(=O)[C@@]2(C)[C@H]([C@H](OC(=O)c3ccccc3)[C@]3(O)C[C@H](OC(=O)[C@H](O)[C@@H](NC(=O)c4ccccc4)c4ccccc4)C(C)=C1C3(C)C)[C@]1(OC(C)=O)CO[C@@H]1C[C@@H]2O` [PTX, paclitaxel] was tested, and the “post necropsy excised tumors weights” value [1] was “significantly lower”.
In the case of “MWGTPTLGYFG [MG11-2G, free control peptide]”, the “clinical severity of CIA” value ([2]; i.p. daily for 14 days from day 24, MG11 and MG11-2G 25 mg/kg, vs vehicle) is reported as “no effect” and the serum cytokine release [3] is reported as “no effect”.
With MWKTPTLKYFG [free MG11, MWKTPTLKYFG] the body weight ([2]; i.p. daily for 14 days, MG11 25 mg/kg) was “without affecting body weight”.
